Test results reported in patent US20250032490A1, “THERAPEUTIC REGIMENS FOR TREATMENT OF PAROXYSMAL NOCTURNAL HEMOGLOBINURIA” (Achillion Pharmaceuticals, Inc., priority 2017, published 2025).

Tests used:
[1] = system: complement system alternative pathway; experiment: CAP Wieslab assay (CAP-mediated TCC production); assay type: biochemical, human; details: AP activity in vitro
[2] = Phase 2 study in PNH subjects: reticulocyte count; assay type: in vivo, human; details: Compound 1 100 mg TID + IV eculizumab
Description: The starting dose of compound 1 is based upon group assignment. The Group 1 dose is 100mg three times daily (TID). The Group 2 dose is 150 mg TID. The Group 3 dose is 200 mg TID. The Group 4 dose will receive the optimal dose determined from Groups 1-3.
All doses are taken approximately 15-30 minutes after completion of a meal or snack.
This will be followed by a long-term extension phase.
2 subjects in the first dose level of 100 mg TID have been completed and data collected through 4 weeks. Data collected include lactate dehydrogenase (LDH) levels, hemoglobin levels, reticulocytes, PNH red blood cells (Type III) percentage, C3 Fragment Deposition percentage, and bilirubin levels and their changes from baseline.
A reticulocyte count is a pharmacodynamic marker that is measured from blood drawn on Day 1, Week 1, Week 2, and Week 4 (FIGS. 15A & 15B and Table 17). A reticulocyte count measures the number of immature red blood cells in a blood sample. People who have PNH may have elevated reticulocyte counts because their bone marrow is producing a lot of new red blood cells.

rabbit erythrocytes = experiment: CAP-mediated hemolysis assay with rabbit erythrocytes; assay type: cell-based; details: Oryctolagus cuniculus, Erythrocyte; AP activity in vitro

CC(=O)c1nn(CC(=O)N2C[C@H](F)C[C@H]2C(=O)Nc2cccc(Br)n2)c2ccc(-c3cnc(C)nc3)cc12 [Compound 1, (2S,4R)-1-(2-(3-acetyl-5-(2-methylpyrimidin-5-yl)-1H-indazol-1-yl)acetyl)-N-(6-bromopyridin-2-yl)-4-fluoropyrrolidine-2-carboxamide]
IC50 [1]: 26 nM | RETICULOCYTES Observed ([2]; subject 003-001, DAY 1 (baseline)): 159 10^9/L | RETICULOCYTES CFB (change from baseline) ([2]; subject 003-001, DAY 1): 0 10^9/L | RETICULOCYTES CFB (change from baseline) ([2]; subject 003-001, WEEK 1): −39 10^9/L | RETICULOCYTES Observed ([2]; subject 003-001, WEEK 1): 120 10^9/L | RETICULOCYTES CFB (change from baseline) ([2]; subject 003-001, WEEK 2): −34 10^9/L | RETICULOCYTES Observed ([2]; subject 003-001, WEEK 2): 125 10^9/L | RETICULOCYTES CFB (change from baseline) ([2]; subject 003-001, WEEK 4): −64 10^9/L | RETICULOCYTES Observed ([2]; subject 003-001, WEEK 4): 95 10^9/L | RETICULOCYTES Observed ([2]; subject 003-002, DAY 1 (baseline)): 250 10^9/L | RETICULOCYTES CFB (change from baseline) ([2]; subject 003-002, DAY 1): 0 10^9/L | RETICULOCYTES CFB (change from baseline) ([2]; subject 003-002, WEEK 1): −106 10^9/L | RETICULOCYTES Observed ([2]; subject 003-002, WEEK 1): 144 10^9/L | RETICULOCYTES CFB (change from baseline) ([2]; subject 003-002, WEEK 2): −85 10^9/L | RETICULOCYTES Observed ([2]; subject 003-002, WEEK 2): 165 10^9/L | RETICULOCYTES CFB (change from baseline) ([2]; subject 003-002, WEEK 4): −118 10^9/L | RETICULOCYTES Observed ([2]; subject 003-002, WEEK 4): 132 10^9/L | IC50 (rabbit erythrocytes): 27 nM
